# Target: Bromodomain and WD repeat-containing protein 1 (Homo sapiens, UniProt Q9NSI6)
# Experiment: Binding affinity to human partial length WDR9 bromodomain 2 (A1310 to E1430 residues) expressed in bacterial expression system by BROMOscan assay
# Details: not given
row,Structure (SMILES),Kd
1,C/C=C/Cn1cc(-c2ccc(C(C)(C)O)cc2OC)c2cc[nH]c2c1=O,> 10 µM

# Target: Bromodomain-containing protein 2 (Homo sapiens, UniProt P25440)
# Experiment: Binding affinity to human partial length BRD2 bromodomain 1 long isoform (K71 to N194 residues) expressed in bacterial expression system by BROMOscan assay
# Details: not given
row,Structure (SMILES),Kd
1,C/C=C/Cn1cc(-c2ccc(C(C)(C)O)cc2OC)c2cc[nH]c2c1=O,2.7 µM

# System: U-937
# Experiment: Cytotoxicity against human U-937 cells measured after 8 days
# Format: functional, cell-based
# Details: U-937, 192 h
row,Structure (SMILES),IC50
1,C/C=C/Cn1cc(-c2ccc(C(C)(C)O)cc2OC)c2cc[nH]c2c1=O,20 µM

# System: not listed separately
# Experiment: Cytotoxicity against human COLO 206F cells measured after 8 days
# Format: functional, cell-based
# Details: 192 h
row,Structure (SMILES),IC50
1,C/C=C/Cn1cc(-c2ccc(C(C)(C)O)cc2OC)c2cc[nH]c2c1=O,20 µM

# System: HEL
# Experiment: Cytotoxicity against human HEL cells measured after 8 days
# Format: functional, cell-based
# Details: 192 h
row,Structure (SMILES),IC50
1,C/C=C/Cn1cc(-c2ccc(C(C)(C)O)cc2OC)c2cc[nH]c2c1=O,14.8 µM

# Target: T1, Transcription initiation factor TFIID subunit 1 (Homo sapiens, UniProt P21675)
# T1 sequence (P21675 whole entry, the tested form may be a part): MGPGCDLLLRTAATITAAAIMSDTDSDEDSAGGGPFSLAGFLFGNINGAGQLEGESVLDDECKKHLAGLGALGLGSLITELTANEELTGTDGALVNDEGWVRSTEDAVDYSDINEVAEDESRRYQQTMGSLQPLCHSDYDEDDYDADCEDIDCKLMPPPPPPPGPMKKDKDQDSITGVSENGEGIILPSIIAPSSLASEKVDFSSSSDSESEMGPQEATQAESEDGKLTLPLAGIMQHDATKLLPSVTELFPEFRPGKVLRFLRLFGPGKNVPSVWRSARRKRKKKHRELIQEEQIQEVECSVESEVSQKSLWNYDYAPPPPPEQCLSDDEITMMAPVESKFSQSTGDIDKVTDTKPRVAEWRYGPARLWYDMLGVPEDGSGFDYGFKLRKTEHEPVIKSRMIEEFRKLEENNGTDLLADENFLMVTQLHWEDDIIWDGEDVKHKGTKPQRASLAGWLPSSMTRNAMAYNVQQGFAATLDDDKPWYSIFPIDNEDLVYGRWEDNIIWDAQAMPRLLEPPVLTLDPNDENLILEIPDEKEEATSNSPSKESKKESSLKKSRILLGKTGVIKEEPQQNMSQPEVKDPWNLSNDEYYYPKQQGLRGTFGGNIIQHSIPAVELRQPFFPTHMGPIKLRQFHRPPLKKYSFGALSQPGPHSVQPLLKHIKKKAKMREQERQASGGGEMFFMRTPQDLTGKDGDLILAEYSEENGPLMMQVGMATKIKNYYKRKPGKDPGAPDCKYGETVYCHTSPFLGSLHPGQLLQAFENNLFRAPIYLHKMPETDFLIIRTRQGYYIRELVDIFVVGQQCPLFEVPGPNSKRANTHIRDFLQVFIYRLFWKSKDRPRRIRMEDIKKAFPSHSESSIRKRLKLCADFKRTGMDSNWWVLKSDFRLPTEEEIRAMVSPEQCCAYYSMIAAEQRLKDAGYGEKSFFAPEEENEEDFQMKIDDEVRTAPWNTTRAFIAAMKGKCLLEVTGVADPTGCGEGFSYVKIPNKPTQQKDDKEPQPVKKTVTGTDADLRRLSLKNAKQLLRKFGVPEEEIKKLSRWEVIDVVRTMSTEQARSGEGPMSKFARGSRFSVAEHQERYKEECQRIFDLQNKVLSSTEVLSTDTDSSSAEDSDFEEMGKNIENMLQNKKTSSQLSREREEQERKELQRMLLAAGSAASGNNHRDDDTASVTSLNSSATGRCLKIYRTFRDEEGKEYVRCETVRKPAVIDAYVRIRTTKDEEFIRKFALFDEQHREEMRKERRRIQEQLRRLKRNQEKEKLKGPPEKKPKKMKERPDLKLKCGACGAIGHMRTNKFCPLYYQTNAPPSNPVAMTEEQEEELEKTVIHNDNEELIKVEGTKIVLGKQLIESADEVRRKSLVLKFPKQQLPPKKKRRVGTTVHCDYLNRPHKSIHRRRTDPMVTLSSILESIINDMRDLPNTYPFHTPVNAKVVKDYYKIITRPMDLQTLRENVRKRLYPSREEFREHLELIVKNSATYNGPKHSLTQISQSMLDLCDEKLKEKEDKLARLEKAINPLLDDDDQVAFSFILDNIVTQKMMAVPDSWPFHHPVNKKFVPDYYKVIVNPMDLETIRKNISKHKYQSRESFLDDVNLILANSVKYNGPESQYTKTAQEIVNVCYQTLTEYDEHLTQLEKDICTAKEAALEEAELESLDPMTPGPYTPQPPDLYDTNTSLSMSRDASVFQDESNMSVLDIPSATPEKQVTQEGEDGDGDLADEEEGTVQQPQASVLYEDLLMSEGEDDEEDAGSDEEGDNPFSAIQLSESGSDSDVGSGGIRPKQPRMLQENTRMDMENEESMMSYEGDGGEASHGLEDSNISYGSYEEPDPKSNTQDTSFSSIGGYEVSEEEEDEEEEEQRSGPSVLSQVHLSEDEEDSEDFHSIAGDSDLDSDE
# Experiment: Binding affinity to human partial length TAF1 bromodomain 2 (D1521 to D1656 residues) expressed in bacterial expression system by BROMOscan assay
# Details: not given
row,Structure (SMILES),Kd
1,C/C=C/Cn1cc(-c2ccc(C(C)(C)O)cc2OC)c2cc[nH]c2c1=O,> 10 µM

# System: LNCaP
# Experiment: Cytotoxicity against human LNCaP clone FGC cells measured after 8 days
# Format: functional, cell-based
# Details: 192 h
row,Structure (SMILES),IC50
1,C/C=C/Cn1cc(-c2ccc(C(C)(C)O)cc2OC)c2cc[nH]c2c1=O,19.9 µM

# System: not listed separately
# Experiment: Cytotoxicity against human KPL-4 cells measured after 8 days
# Format: functional, cell-based
# Details: KPL4, 192 h
row,Structure (SMILES),IC50
1,C/C=C/Cn1cc(-c2ccc(C(C)(C)O)cc2OC)c2cc[nH]c2c1=O,20 µM

# Target: 5-hydroxytryptamine receptor 1B (Rattus norvegicus) (UniProt P28564)
# Experiment: Displacement of [125I]-CYP from rat brain 5-HT1B receptor at 10 uM after 120 mins by scintillation counting analysis relative to control
# Details: not given
row,Structure (SMILES),Activity
1,C/C=C/Cn1cc(-c2ccc(C(C)(C)O)cc2OC)c2cc[nH]c2c1=O,-15%

# Target: Kappa-type opioid receptor (Homo sapiens) (UniProt P41145)
# Sequence (P41145 whole entry): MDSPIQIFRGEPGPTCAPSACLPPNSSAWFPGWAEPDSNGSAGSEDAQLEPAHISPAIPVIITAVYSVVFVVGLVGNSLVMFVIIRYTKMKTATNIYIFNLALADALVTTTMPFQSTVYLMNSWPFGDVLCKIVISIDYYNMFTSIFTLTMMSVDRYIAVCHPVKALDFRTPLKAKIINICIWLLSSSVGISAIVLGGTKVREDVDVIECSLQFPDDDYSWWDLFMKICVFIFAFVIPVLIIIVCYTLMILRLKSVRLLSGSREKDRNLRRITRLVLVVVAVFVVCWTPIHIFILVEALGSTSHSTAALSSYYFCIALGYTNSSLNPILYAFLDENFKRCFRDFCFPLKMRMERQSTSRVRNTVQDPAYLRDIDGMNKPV
# Experiment: Displacement of [3H]U69593 from human kappa receptor at 10 uM after 60 mins by scintillation counting analysis relative to control
# Details: not given
row,Structure (SMILES),Activity
1,C/C=C/Cn1cc(-c2ccc(C(C)(C)O)cc2OC)c2cc[nH]c2c1=O,-1%

# System: not listed separately
# Experiment: Cytotoxicity against human HT115 cells measured after 8 days
# Format: functional, cell-based
# Details: HT115, 192 h
row,Structure (SMILES),IC50
1,C/C=C/Cn1cc(-c2ccc(C(C)(C)O)cc2OC)c2cc[nH]c2c1=O,20 µM

# System: not listed separately
# Experiment: Cytotoxicity against human OUMS-23 cells measured after 8 days
# Format: functional, cell-based
# Details: OUMS-23, 192 h
row,Structure (SMILES),IC50
1,C/C=C/Cn1cc(-c2ccc(C(C)(C)O)cc2OC)c2cc[nH]c2c1=O,20 µM

# System: OCI-AML-5
# Experiment: Cytotoxicity against human OCI-AML5 cells measured after 8 days
# Format: functional, cell-based
# Details: OCI-AML-5, 192 h
row,Structure (SMILES),IC50
1,C/C=C/Cn1cc(-c2ccc(C(C)(C)O)cc2OC)c2cc[nH]c2c1=O,20 µM

# Target: Bromodomain adjacent to zinc finger domain protein 2A (Homo sapiens, UniProt Q9UIF9)
# Experiment: Binding affinity to human partial length BAZ2A (M1792 to L1905 residues) expressed in bacterial expression system by BROMOscan assay
# Details: not given
row,Structure (SMILES),Kd
1,C/C=C/Cn1cc(-c2ccc(C(C)(C)O)cc2OC)c2cc[nH]c2c1=O,> 10 µM

# Target: SWI/SNF-related matrix-associated actin-dependent regulator of chromatin subfamily A member 4 (Homo sapiens, UniProt P51532)
# Experiment: Binding affinity to human partial length SMARCA4 (A1448 to S1575 residues) expressed in bacterial expression system by BROMOscan assay
# Details: not given
row,Structure (SMILES),Kd
1,C/C=C/Cn1cc(-c2ccc(C(C)(C)O)cc2OC)c2cc[nH]c2c1=O,> 10 µM

# System: A-375
# Experiment: Cytotoxicity against human A-375 cells measured after 8 days
# Format: functional, cell-based
# Details: A-375, 192 h
row,Structure (SMILES),IC50
1,C/C=C/Cn1cc(-c2ccc(C(C)(C)O)cc2OC)c2cc[nH]c2c1=O,20 µM

# Target: T2, Bromodomain-containing protein 8 (Homo sapiens, UniProt Q9H0E9)
# T2 sequence (Q9H0E9 whole entry): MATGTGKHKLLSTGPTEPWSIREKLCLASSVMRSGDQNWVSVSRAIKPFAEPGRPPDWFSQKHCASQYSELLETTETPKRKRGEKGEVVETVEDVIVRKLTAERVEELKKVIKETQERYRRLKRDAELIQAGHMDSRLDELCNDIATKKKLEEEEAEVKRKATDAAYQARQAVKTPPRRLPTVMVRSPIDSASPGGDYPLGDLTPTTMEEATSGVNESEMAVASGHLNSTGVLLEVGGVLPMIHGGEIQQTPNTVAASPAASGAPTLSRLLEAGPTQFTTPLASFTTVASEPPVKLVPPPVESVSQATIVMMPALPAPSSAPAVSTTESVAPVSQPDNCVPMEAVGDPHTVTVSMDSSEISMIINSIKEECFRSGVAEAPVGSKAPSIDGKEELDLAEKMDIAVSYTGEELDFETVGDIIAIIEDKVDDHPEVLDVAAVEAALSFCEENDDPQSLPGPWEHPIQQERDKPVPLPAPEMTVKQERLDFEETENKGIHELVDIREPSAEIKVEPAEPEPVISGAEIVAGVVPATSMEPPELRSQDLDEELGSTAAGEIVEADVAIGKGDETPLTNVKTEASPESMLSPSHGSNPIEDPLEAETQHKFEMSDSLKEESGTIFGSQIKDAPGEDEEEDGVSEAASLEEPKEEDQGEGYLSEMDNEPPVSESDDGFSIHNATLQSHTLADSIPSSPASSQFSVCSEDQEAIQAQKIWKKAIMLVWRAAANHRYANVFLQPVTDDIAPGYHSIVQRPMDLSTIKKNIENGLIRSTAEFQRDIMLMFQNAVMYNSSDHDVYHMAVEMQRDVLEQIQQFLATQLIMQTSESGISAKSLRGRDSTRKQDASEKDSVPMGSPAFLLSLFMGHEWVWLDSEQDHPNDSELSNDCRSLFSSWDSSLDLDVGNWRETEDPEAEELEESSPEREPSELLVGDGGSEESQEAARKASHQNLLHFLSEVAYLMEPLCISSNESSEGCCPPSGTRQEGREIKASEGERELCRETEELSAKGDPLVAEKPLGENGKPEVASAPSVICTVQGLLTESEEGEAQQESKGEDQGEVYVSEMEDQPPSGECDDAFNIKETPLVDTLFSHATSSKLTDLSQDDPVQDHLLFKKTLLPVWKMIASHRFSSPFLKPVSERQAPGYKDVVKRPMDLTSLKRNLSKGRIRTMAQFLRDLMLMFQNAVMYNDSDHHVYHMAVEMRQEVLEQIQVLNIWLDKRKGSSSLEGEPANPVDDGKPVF
# Experiment: Binding affinity to BRD8 bromodomain 2 (unknown origin) by BROMOscan assay
# Details: not given
row,Structure (SMILES),Kd
1,C/C=C/Cn1cc(-c2ccc(C(C)(C)O)cc2OC)c2cc[nH]c2c1=O,> 10 µM

# System: MKN-45
# Experiment: Cytotoxicity against human MKN-45 cells measured after 8 days
# Format: functional, cell-based
# Details: MKN-45, 192 h
row,Structure (SMILES),IC50
1,C/C=C/Cn1cc(-c2ccc(C(C)(C)O)cc2OC)c2cc[nH]c2c1=O,20 µM

# System: not listed separately
# Experiment: Cytotoxicity against human LS174T-HM7 cells measured after 8 days
# Format: functional, cell-based
# Details: LS174T-HM7, 192 h
row,Structure (SMILES),IC50
1,C/C=C/Cn1cc(-c2ccc(C(C)(C)O)cc2OC)c2cc[nH]c2c1=O,20 µM

# Target: T2, Bromodomain-containing protein 8
# Experiment: Binding affinity to BRD8 bromodomain 1 (unknown origin) by BROMOscan assay
# Details: not given
row,Structure (SMILES),Kd
1,C/C=C/Cn1cc(-c2ccc(C(C)(C)O)cc2OC)c2cc[nH]c2c1=O,> 10 µM

# System: SKM-1
# Experiment: Cytotoxicity against human SKM-1 cells measured after 8 days
# Format: functional, cell-based
# Details: SKM-1, 192 h
row,Structure (SMILES),IC50
1,C/C=C/Cn1cc(-c2ccc(C(C)(C)O)cc2OC)c2cc[nH]c2c1=O,20 µM

# Target: Adenosine receptor A2a (Homo sapiens) (UniProt P29274)
# Sequence (P29274 whole entry): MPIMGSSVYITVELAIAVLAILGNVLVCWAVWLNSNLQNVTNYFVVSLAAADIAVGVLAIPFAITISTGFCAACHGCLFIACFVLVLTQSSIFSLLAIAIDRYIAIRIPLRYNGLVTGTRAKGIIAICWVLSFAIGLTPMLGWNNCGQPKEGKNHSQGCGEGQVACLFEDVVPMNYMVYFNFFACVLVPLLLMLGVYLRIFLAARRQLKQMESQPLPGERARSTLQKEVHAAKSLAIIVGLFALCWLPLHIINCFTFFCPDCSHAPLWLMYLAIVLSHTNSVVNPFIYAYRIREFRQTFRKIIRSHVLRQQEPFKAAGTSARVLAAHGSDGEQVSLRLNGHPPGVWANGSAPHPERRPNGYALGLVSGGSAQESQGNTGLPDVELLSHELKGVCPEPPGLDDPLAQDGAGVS
# Experiment: Displacement of [3H]-CGS 21680 from human recombinant adenosine A2A receptor at 10 uM after 120 mins by scintillation counting analysis relative to control
# Details: not given
row,Structure (SMILES),Activity
1,C/C=C/Cn1cc(-c2ccc(C(C)(C)O)cc2OC)c2cc[nH]c2c1=O,8%

# Target: T3, Serine/threonine-protein kinase Chk1 (Homo sapiens) (UniProt O14757)
# T3 sequence (whole entry): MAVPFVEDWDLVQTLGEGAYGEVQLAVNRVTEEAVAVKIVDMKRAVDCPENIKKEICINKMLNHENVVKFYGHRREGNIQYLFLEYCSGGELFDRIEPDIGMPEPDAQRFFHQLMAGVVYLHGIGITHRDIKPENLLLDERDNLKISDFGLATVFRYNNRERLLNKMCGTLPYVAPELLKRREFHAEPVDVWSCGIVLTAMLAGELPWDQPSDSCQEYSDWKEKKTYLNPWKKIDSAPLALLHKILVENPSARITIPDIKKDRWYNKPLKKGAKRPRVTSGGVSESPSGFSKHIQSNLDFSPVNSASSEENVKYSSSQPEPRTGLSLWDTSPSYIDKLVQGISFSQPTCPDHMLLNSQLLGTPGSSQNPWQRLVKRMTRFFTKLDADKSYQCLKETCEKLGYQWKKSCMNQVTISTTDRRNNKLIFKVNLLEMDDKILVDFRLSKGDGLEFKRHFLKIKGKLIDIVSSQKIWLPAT
# Experiment: Inhibition of CHK1 (unknown origin) at 1 uM relative to control
# Details: not given
row,Structure (SMILES),inhibition
1,C/C=C/Cn1cc(-c2ccc(C(C)(C)O)cc2OC)c2cc[nH]c2c1=O,7%

# System: BJAB
# Experiment: Cytotoxicity against human BJAB cells measured after 8 days
# Format: functional, cell-based
# Details: 192 h
row,Structure (SMILES),IC50
1,C/C=C/Cn1cc(-c2ccc(C(C)(C)O)cc2OC)c2cc[nH]c2c1=O,20 µM

# Target: Histone acetyltransferase KAT2B (Homo sapiens, UniProt Q92831)
# Experiment: Binding affinity to human partial length PCAF (G715 to D831 residues) expressed in bacterial expression system by BROMOscan assay
# Details: not given
row,Structure (SMILES),Kd
1,C/C=C/Cn1cc(-c2ccc(C(C)(C)O)cc2OC)c2cc[nH]c2c1=O,> 10 µM

# Target: T1, Transcription initiation factor TFIID subunit 1
# Experiment: Displacement of biotinylated small-molecule ligand from recombinant His-tagged TAF1 bromodomain 2 (unknown origin) measured after 10 mins by TR-FRET assay
# Details: not given
row,Structure (SMILES),IC50
1,C/C=C/Cn1cc(-c2ccc(C(C)(C)O)cc2OC)c2cc[nH]c2c1=O,> 20 µM

# System: not listed separately
# Experiment: Cytotoxicity against human NCI-H2731 cells measured after 8 days
# Format: functional, cell-based
# Details: NCI-H2731, 192 h
row,Structure (SMILES),IC50
1,C/C=C/Cn1cc(-c2ccc(C(C)(C)O)cc2OC)c2cc[nH]c2c1=O,20 µM

# Target: Sodium-dependent noradrenaline transporter (Homo sapiens) (UniProt P23975)
# Experiment: Displacement of [3H]nisoxetine from recombinant human norepinephrine transporter at 10 uM after 120 mins by scintillation counting analysis relative to control
# Details: not given
row,Structure (SMILES),Activity
1,C/C=C/Cn1cc(-c2ccc(C(C)(C)O)cc2OC)c2cc[nH]c2c1=O,-6%

# System: HDQ-P1
# Experiment: Cytotoxicity against human HDQ-P1 cells measured after 8 days
# Format: functional, cell-based
# Details: HDQ-P1, 192 h
row,Structure (SMILES),IC50
1,C/C=C/Cn1cc(-c2ccc(C(C)(C)O)cc2OC)c2cc[nH]c2c1=O,20 µM

# Target: Protein polybromo-1 (Homo sapiens, UniProt Q86U86)
# Experiment: Binding affinity to human partial length PBRM1 bromodomain 5 (S645 to D766 residues) expressed in bacterial expression system by BROMOscan assay
# Details: not given
row,Structure (SMILES),Kd
1,C/C=C/Cn1cc(-c2ccc(C(C)(C)O)cc2OC)c2cc[nH]c2c1=O,> 10 µM

# System: UMC-11
# Experiment: Cytotoxicity against human UMC-11 cells measured after 8 days
# Format: functional, cell-based
# Details: UMC-11, 192 h
row,Structure (SMILES),IC50
1,C/C=C/Cn1cc(-c2ccc(C(C)(C)O)cc2OC)c2cc[nH]c2c1=O,20 µM

# Target: Mu-type opioid receptor (Homo sapiens) (UniProt P35372)
# Sequence (P35372 whole entry): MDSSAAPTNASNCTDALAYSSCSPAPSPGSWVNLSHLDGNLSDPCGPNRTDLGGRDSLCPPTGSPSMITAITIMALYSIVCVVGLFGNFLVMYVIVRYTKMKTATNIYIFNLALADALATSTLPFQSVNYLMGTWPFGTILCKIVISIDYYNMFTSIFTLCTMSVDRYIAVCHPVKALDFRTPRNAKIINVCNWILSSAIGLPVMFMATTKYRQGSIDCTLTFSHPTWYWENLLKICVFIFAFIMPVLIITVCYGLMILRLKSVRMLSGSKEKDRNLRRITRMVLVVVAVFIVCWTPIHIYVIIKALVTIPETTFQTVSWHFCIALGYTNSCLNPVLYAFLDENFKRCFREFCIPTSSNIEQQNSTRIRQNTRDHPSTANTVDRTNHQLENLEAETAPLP
# Experiment: Displacement of [3H]DAMGO from human recombinant mu receptor at 10 uM after 120 mins by scintillation counting analysis relative to control
# Details: not given
row,Structure (SMILES),Activity
1,C/C=C/Cn1cc(-c2ccc(C(C)(C)O)cc2OC)c2cc[nH]c2c1=O,10%

# Target: Bromodomain-containing protein 3 (Homo sapiens, UniProt Q15059)
# Sequence (Q15059 whole entry): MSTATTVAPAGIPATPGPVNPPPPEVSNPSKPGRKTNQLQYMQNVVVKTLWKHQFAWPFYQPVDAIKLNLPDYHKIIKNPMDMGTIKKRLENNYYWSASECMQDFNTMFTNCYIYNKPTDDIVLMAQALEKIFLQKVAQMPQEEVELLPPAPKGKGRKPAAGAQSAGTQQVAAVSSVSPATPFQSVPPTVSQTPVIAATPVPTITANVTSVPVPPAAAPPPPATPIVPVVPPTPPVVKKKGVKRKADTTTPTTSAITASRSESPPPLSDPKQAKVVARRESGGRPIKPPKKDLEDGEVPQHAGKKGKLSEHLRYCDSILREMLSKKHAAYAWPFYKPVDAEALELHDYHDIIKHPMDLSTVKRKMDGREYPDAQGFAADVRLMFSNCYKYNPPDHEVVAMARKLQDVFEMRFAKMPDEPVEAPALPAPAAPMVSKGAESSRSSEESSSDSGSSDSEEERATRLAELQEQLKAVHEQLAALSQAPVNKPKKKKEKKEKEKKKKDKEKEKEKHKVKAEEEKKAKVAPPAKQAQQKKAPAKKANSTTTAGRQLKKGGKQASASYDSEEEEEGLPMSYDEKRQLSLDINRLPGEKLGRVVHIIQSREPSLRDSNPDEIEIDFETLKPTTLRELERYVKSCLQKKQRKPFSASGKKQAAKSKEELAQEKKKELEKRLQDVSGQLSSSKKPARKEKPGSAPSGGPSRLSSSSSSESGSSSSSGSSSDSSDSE
# Experiment: Binding affinity to BRD3 bromodomain 1/2 (unknown origin) by BROMOscan assay
# Details: not given
row,Structure (SMILES),Kd
1,C/C=C/Cn1cc(-c2ccc(C(C)(C)O)cc2OC)c2cc[nH]c2c1=O,5.5 µM

# System: CA46
# Experiment: Cytotoxicity against human CA46 cells measured after 8 days
# Format: functional, cell-based
# Details: CA46, 192 h
row,Structure (SMILES),IC50
1,C/C=C/Cn1cc(-c2ccc(C(C)(C)O)cc2OC)c2cc[nH]c2c1=O,9.85 µM

# Target: Dual specificity mitogen-activated protein kinase kinase 1 (Homo sapiens) (UniProt Q02750)
# Experiment: Inhibition of MEK1 (unknown origin) at 1 uM relative to control
# Details: not given
row,Structure (SMILES),inhibition
1,C/C=C/Cn1cc(-c2ccc(C(C)(C)O)cc2OC)c2cc[nH]c2c1=O,1%

# System: LCLC-97TM1
# Experiment: Cytotoxicity against human LCLC-97TM1 cells measured after 8 days
# Format: functional, cell-based
# Details: LCLC-97TM1, 192 h
row,Structure (SMILES),IC50
1,C/C=C/Cn1cc(-c2ccc(C(C)(C)O)cc2OC)c2cc[nH]c2c1=O,20 µM

# System: NCI-H650
# Experiment: Cytotoxicity against human NCI-H650 cells measured after 8 days
# Format: functional, cell-based
# Details: NCI-H650, 192 h
row,Structure (SMILES),IC50
1,C/C=C/Cn1cc(-c2ccc(C(C)(C)O)cc2OC)c2cc[nH]c2c1=O,20 µM

# Reference: ChEMBL document CHEMBL5260810, “Inhibition of bromodomain-containing protein 9 for the prevention of epigenetically-defined drug resistance” (Bioorg Med Chem Lett, 2017)
